Entries after “also recorded” stand apart in the source; their conditions may differ.
Legend:
[1] = system: lysosomes of U-2-OS cells; assay: Lysosomal integrity upon photo-oxidation (acridine orange and blue light); format: cell-based, human; details: for protection of lysosomes against photo-oxidation (lysosomal integrity): U-2-OS cells, recombinant protein 300 nM, 24 h
Protocol: Sub-confluent U-2-OS cells incubated with 2 μg/ml acridine orange for 15 min at 37° C. were washed, irradiated and analyzed in Hanks balanced salt solution complemented with 3% FCS. Cells for single cell imaging were selected from 8 pre-defined areas of each well in transmitted light-mode after which the same cells were immediately visualized and exposed to blue light from USH102 100 W mercury arc burner (Ushio electric) installed in a U-ULS100HG housing (Olympus) for 20 sec. Fluorescence microscopy was performed on Olympus IX-70 inverted microscope with a LCPlanF1×20 objective with NA=0.40. Loss of lysosomal pH gradient was quantified by counting the loss of intense red staining.
(§1) Assays for lysosomal integrity. Sub-confluent cells incubated with 2 μg/ml acridine orange for 15 min at 37° C. were washed, irradiated and analyzed in Hanks balanced salt solution complemented with 3% fetal calf serum. Cells for single cell imaging were selected from 8 pre-defined areas of each well in transmitted light-mode after which the same cells were immediately visualized and exposed to blue light from USH102 100 W mercury arc burner (Ushio electric) installed in a U-ULS100HG housing (Olympus) for 20 sec. Fluorescence microscopy was performed on Olympus IX-70 inverted microscope with a LCPlanF1×20 objective with NA=0.40. Loss of lysosomal pH gradient was quantified by counting the loss of intense red staining. A more elaborate method for assaying lysosomal integrity was developed to handle the larger lysosomal compartment of the various fibroblasts used in this study. Cells for single cell imaging were selected from 8 pre-defined areas of each well in transmitted light-mode after which the same cells were immediately and continuously exposed to 489 nm light from a 100 mW diode laser while laser scanning micrographs where captured every 330 ms on a Zeiss LSM LIVE DUO confocal system in two channels defined by bandpass filters for 495-555 nm (green) and LP650 nm (Red) light. The resulting timelapse movies where subsequently analysed by the integrated Zeiss LSM DUO software. The total and cytoplasmic (digitonin-extracted) cathepsin activities were measured in digitonin-treated samples using zFR-AFC (Enzyme System Products) probe as described in the art.

POPC/BMP liposomes = assay: Tryptophan fluorescence shift upon docking into POPC/BMP liposomes; format: binding; details: pH 6.0
Protocol: (§2) The tryptophan fluorescence spectra (RFI) and liposome 900 light scattering (RSI) were analyzed in a HEPES buffer (20 mM HEPES, 0.1 mM EDTA, pH 7.4 or 6.0 as indicated) employing LUVs consisting of indicated lipids essentially as described previously. For the RFI, LUVs were added in 10 μM aliquots and spectra recorded after a 20 min stabilization period. For the RSI, recombinant proteins were added in 0.12 nmol aliquots.
as §2, with “Tryptophan fluorescence spectra and liposome 90° light scattering. The” for “The”, “in the art.” for “previously.”

BMP = assay: BIAcore surface plasmon resonance with immobilized BMP-containing LUVs; format: binding; details: pH 4.5, L1 sensor chip
Protocol: (§3) For preparation of LUVs a lipid mixture consisting of 10 mol % sphingomyelin, 50 mol % phosphatidylcholine, 20 mol % cholesterol and 20 mol % BMP dissolved in organic solvents, was dried under a stream of argon and rehydrated in Tris/HCl buffer (pH 7.4) (Kolzer et al., 2004). The mixture was freeze-thawed nine times in liquid nitrogen and then in an incubator at 37° C. After ultrasound bath for 15 min the mixture was passed 21 times through a polycarbonate membrane with a pore diameter of 100 nm. Surface plasmon resonance measurements were performed using a BIAcore 2000 system at 25° C. LUVs (total lipid concentration 0.1 mM) were immobilized on the surface of a L1 sensor chip (BIAcore) in PBS (loading buffer). The running buffer used was sodium acetate buffer (50 mM, pH 4.5). As a control, acid sphingomyelinase (0.2 μM, 60 μl in running buffer) was injected directly on the liposome surface. Response units between 4100 RU-5250RU were obtained. The protein of interest was injected in running buffer at a flow rate of 20 μl/min at the concentrations indicated. After injection a dissociation phase of 10 min was appended.
as §3, with “Surface Plasmon Resonance (BIAcore). For” for “For”, “7.4).” for “7.4) (Kolzer et al., 2004).”, “The protein of interest was injected in running buffer at a flow rate of 20 μl/min at the concentrations indicated. After injection a dissociation phase of 10 min was appended.” left out

[2] = system: U-2-OS osteosarcoma cells; assay: Cisplatin-induced apoptosis-like cell death (Hoechst 33342); format: cell-based, human; details: for protection of cells against cisplatin-induced lysosomal cell death: recombinant protein 300 nM 24 h, 25 μM cisplatin 24 h
Protocol: (§4) Apoptosis-like cell death was assessed by staining the cells with 0.05 μg/ml Hoechst 33342 (Molecular Probes) and counting cells with condensed nuclei in an inverted Olympus IX-70 fluorescent Microscope (Filter U-MWU 330-385 nm). For each experiment a minimum of eight randomly chosen areas were counted.
as §4, with “Assays for cell viability. Cell density was assessed by the 3-(4,5-dimethylthiazole-2-y)-2,5-[…] (MTT, SIGMA-Aldrich) reduction assay essentially as described in the art. Apoptosis-like” for “Apoptosis-like”

HSPs, including Hsp70 = details: cited from earlier work
NPDA fibroblasts = assay: Lysosomal area of confocal cross sections, NPDA fibroblasts; format: cell-based, human; details: for pathology measured by lysosomal cross-sectional area: NPDA Götz cells, 40 mM
Description: Immunodetection and microscopy. Primary antibodies used included mouse monoclonal antibodies against Hsp70 (2H9; kindly provided by Boris Margulis, Russian Academy of Sciences, St. Petersburg, Russia), glyceraldehyde-3-phosphate dehydrogenase (GAPDH; Biogenesis), BMP (6C4), lysosomal integral membrane protein-1 (H5C6; developed by J. Thomas August and James E. K. Hildreth and obtained from the Developmental Studies Hybridoma Bank developed under the auspices of the NICHD and maintained by The University of Iowa, Department of Biological Sciences, Iowa City, USA). Proteins separated by 10% SDS-PAGE and transferred to a nitrocellulose membrane were detected by using indicated primary antibodies, appropriate peroxidase-conjugated secondary antibodies from Dako, ECL Western blotting reagents (Amersham), and Luminescent Image Reader (LAS-1000Plus, Fujifilm). For immunocytochemistry Alexa […] or Alexa Fluor®-488-conjugated secondary antibodies were used. Lysotracker Red® was used for live visualization of the lysosomal compartment. Fluorescence images were taken using a Zeiss Axiovert 100M laser scanning microscope. Lysotracker quantification and timelapse movies for lysosomal integrity were done on a Zeiss LSM LIVE DUO system.

[3] = Folding and chaperone function of rHsp70 mutant (circular dichroism, luciferase folding, ATP hydrolysis); format: biochemical
[4] = system: lysosomes of NPDA patient fibroblasts; assay: Lysosomal stability of NPDA fibroblasts (photo-oxidation, live single-cell imaging); format: cell-based, human; details: NPDA Götz cells, 40 mM
Protocol: as §1

Hsp70 = Hsp70 protein expression by western blotting in NPDA cells; format: cell-based, human; details: NPDA Götz cells, 0, 20, 30, 35, 40, 45 mM
Protocol: It is shown in Examples 2 and 3 that Hsp70 has a lysosome stabilizing effect via an interaction with BMP. In order to evaluate if this effect is also observed when exposing cells to a chemical Hsp70 inducer, Niemann-Pick Type A (NPDA) patient fibroblasts were treated with the small molecule Hsp70 inducer; Benzyl Alcohol (BA). First, NPDA cells were treated with increasing doses of BA (0, 20, 30, 35, 40, 45 mM), lysed, and analysed by western blotting. The same amount of protein was loaded in each well. […] Next, the stability of NPDA Götz lysosomes after treatment with 40 mM BA was evaluated, using the same methods as described in Example 2. […] Finally, the lysosomal cross-sectional area in NPDA Götz cells after treatment with 40 mM BA was evaluated, using the same methods as described in Example 2.

Molecule: Hsp70-2: recombinant Hsp70-2, 84% amino acid sequence homology with Hsp70
- protection of lysosomes against photo-oxidation (lysosomal integrity) [1]: no protection; also recorded: no lysosomal stabilization

Molecule: rHsp70-W580F: rHsp70 point mutant, tryptophan 580 substituted with phenylalanine
- protection of lysosomes against photo-oxidation (lysosomal integrity) [1]: same efficacy as the wild-type protein; also recorded: same protective effect as the wild-type protein
- relative peak fluorescence intensity (tryptophan fluorescence shift) (POPC/BMP liposomes): unchanged signal
- interaction with BMP-containing LUVs (BIAcore) (BMP): essentially the same interaction profile as rHsp70
- protection of cells against cisplatin-induced lysosomal cell death [2]: same efficacy as the wild-type protein; also recorded: same protective effect as the wild-type protein

Molecule: O=C(O)/C=C\C(=O)O.OC(CON=C(Cl)c1cccnc1)CN1CCCCC1 (centres unmarked) [Bimoclomol, [2-hydroxy-3-(1-piperidinyl)propoxy]-3-pyridine-carboximidoyl-chloride maleate]
- induction or co-induction of HSPs / heat shock response (HSPs, including Hsp70): capability of Hsp70 co-induction in the absence of unfolded proteins

Molecule: [O-][n+]1cccc(/C(Cl)=N/OC[C@H](O)CN2CCCCC2)c1 [Arimoclomol]
- induction or co-induction of HSPs / heat shock response (HSPs, including Hsp70): interacts with and amplifies the heat shock response

Molecule: rHsp70-W90F: rHsp70 point mutant, tryptophan 90 substituted with phenylalanine
- protection of lysosomes against photo-oxidation (lysosomal integrity) [1]: completely lost its ability to protect the lysosomal membranes against photo-oxidation
- relative peak fluorescence intensity (tryptophan fluorescence shift) (POPC/BMP liposomes): reduction of the signal
- interaction with BMP-containing LUVs (BIAcore) (BMP): dramatically decreased; also recorded: specifically abolished the interaction between rHsp70 and BMP
- protection of cells against cisplatin-induced lysosomal cell death [2]: completely lost its ability
- lysosomal area / volume of the lysosomal compartment (NPDA fibroblasts; NPDA fibroblasts, 24 h, 300 nM rHsp70 or W90F, 150 nM rASM or combination): effect comparable to control cells
- luciferase folding and ATP hydrolysis [3]: capable of folding luciferase and hydrolyzing ATP

Molecule: [O-][n+]1cccc(C(Cl)=NOC[C@H](O)CN2CCCCC2)c1 [BRX-345]
- induction or co-induction of HSPs / heat shock response (HSPs, including Hsp70): somewhat lesser ability to induce HSPs

Molecule: Hsc70: recombinant Hsc70, 86% amino acid sequence homology with Hsp70
- protection of lysosomes against photo-oxidation (lysosomal integrity) [1]: no protection; also recorded: no lysosomal stabilization

Molecule: OCc1ccccc1 [Benzyl Alcohol]
- stability of lysosomes [4]: Increased stability of NPDA Götz lysosomes
- stability of lysosomes ([4]; listed as BA): increased lysosomal stability
- pathology measured by lysosomal cross-sectional area (NPDA fibroblasts): Decreased pathology
- pathology measured by lysosomal cross-sectional area (NPDA fibroblasts; listed as BA): decreased pathology
- Hsp70 protein expression (Hsp70): Induction of Hsp70 in NPDA Götz by Benzyl alcohol in a dose-dependent manner
- Hsp70 protein expression (Hsp70; listed as BA): induced Hsp70 expression in a dose-dependent manner

Molecule: N.N.[Cl][Pt][Cl] [cisplatin, reference compound]
- lysosomal membrane permeabilization ([2]; U-2-OS cells): induces an early lysosomal membrane permeabilization

Molecule: 5′-GCCAUGACGAAAGACAACAAUCUGU-3′ (other strand not given here) [Hsp70 siRNA, siRNA targeting the two genes encoding Hsp70, reference compound]
- sensitization of lysosomes to photo-oxidation by siRNA ([1]; U-2-OS cells, siRNA 48 h; listed as siRNA) specific for Hsp70): sensitized lysosomes of U-2-OS cells to photo-oxidation; also recorded: sensitized the lysosomes to photo-oxidation

Reference: patent US11938125B2, “Use of Hsp70 as a regulator of enzymatic activity” (Zevra Denmark A/S, priority 2008, dated 2024)
